Assay results as given in paper PMC8700061, “Fragment-Sized and Bidentate (Immuno)Proteasome Inhibitors Derived from Cysteine and Threonine Targeting Warheads” (Cells, 2021).
Marks after values point to notes of the source that are not given here.

Legend:
β1 subunit of human cCP = molecular target: T1, β1 subunit of human cCP (Homo sapiens, UniProt P28072+Q99436); experiment: Inhibition of β1 activity (RA, IC50), Ac-nLPnLD-AMC; format: biochemical; conditions: PA28α; for β1 (RA [%]): 10 µM, Table 3
T1 construct: purchased Boston Biochem, Inc., Cambridge, MA, USA
Method: (§1) Residual activity measurements were performed at 10 μM final concentrations in the assay buffer (0.01% SDS, 50 mM Tris-HCl, 0.5 mM EDTA, pH 7.4). Stock solutions of the compounds were prepared in DMSO. To 50 μL of each compound in buffer, 25 μL of 0.8 nM human iCP or human cCP (both from Boston Biochem, Inc., Cambridge, MA, USA) were added. After incubation at 37 °C for 30 min, the reaction was started by adding of 25 μL of 100 μM relevant fluorogenic substrate: acetyl-Nle-Pro-Nle-Asp-AMC (Ac-nLPnLD-AMC, (Bachem, Bubendorf, Switzerland)) for β1, acetyl-Pro-Ala-Leu-7-amino-4-methylcoumarin (Ac-PAL-AMC, (Boston Biochem, Inc., Cambridge, MA, USA)) for β1i, t-butyloxycarbonyl-Leu-Arg-Arg-7-amino-4-methylcoumarin (Boc-LRR-AMC, (Bachem, Bubendorf, Switzerland)) for β2 and β2i, succinyl-Leu-Leu-Val-Tyr-7-amino-4-methylcoumarin (Suc-LLVY-AMC) (Bachem, Bubendorf, Switzerland) for β5 and β5i. Reaction progress was recorded on BioTek Synergy HT microplate reader by monitoring fluorescence at 460 nm (λex = 360 nm) for 90 min at 37 °C. The initial linear ranges were used to calculate velocity and determine residual activity. In the case of evaluation of β1, βi, β2, and β2i activities, the assay buffer was modified by replacing SDS with the proteasomal activator PA28α (Boston Biochem, Inc., Cambridge, MA, USA).
(§2) Final assay mixtures contained 0.2 nM human iCP or 0.2 nM human cCP in assay buffer (0.01% SDS (or PA28α in cases of β1, β1i subunits), 50 mM Tris-HCl, 0.5 mM EDTA, pH 7.4). Inhibitors were dissolved in DMSO and added to the black 96-well plates for at least eight different concentrations (the final concentration of DMSO was not more than 1%). After 30 min of incubation at 37 °C, the reaction was started by adding the substrate Suc-LLVY-AMC (for β5 and β5i) or Ac-nLPnLD-AMC (for β1) or Ac-PAL-AMC (for β1i). Fluorescence was monitored at 460 nm (λex = 360 nm) for 90 min at 37 °C. The progress of the reactions was recorded and the initial linear ranges were used to calculate the velocity. IC50 values were calculated using GraphPadPrism (GraphPad Software, San Diego, CA, USA) and are means from at least three independent determinations.

β2i subunit of human iCP = molecular target: T2, β2i subunit of human iCP (Homo sapiens, UniProt P40306+P49720); experiment: Residual β2i activity, Boc-LRR-AMC; format: biochemical; conditions: 10 µM, PA28α
T2 construct: purchased Boston Biochem, Inc., Cambridge, MA, USA
Method: as §1

β1i subunit of human iCP = molecular target: T3, β1i subunit of human iCP (Homo sapiens, UniProt P28065+P40306); experiment: Inhibition of β1i activity (RA, IC50), Ac-PAL-AMC; format: biochemical; conditions: PA28α; for IC50: 30 min pre-incubation
T3 construct: purchased Boston Biochem, Inc., Cambridge, MA, USA
Method: as §1, §2

β2 subunit of human cCP = molecular target: T4, β2 subunit of human cCP (Homo sapiens, UniProt P49720+Q99436); experiment: Residual β2 activity, Boc-LRR-AMC; format: biochemical; conditions: 10 µM, PA28α
T4 construct: purchased Boston Biochem, Inc., Cambridge, MA, USA
Method: as §1

β5i subunit of human iCP = molecular target: T5, β5i subunit of human iCP (Homo sapiens, UniProt P20618+P28062); experiment: Inhibition of β5i activity (RA at 10 µM, IC50, IC50 shift), Suc-LLVY-AMC; format: biochemical; conditions: for RA (%) at 10 µM, β5i: 10 µM compound; for RA (%) at 10 µM, β5i / IC50: 30 min pre-incubation, SDS activator; for Group efficiency (GE): ΔpIC50/ΔNheavy with compound 1 as reference; for IC50: read-out: IC50 (µM), β5i
T5 construct: purchased Boston Biochem, Inc., Cambridge, MA, USA
Method: as §1
as §2, with “After 30 min of incubation at 37 °C, the reaction was started by adding the substrate Suc-LLVY-AMC (for β5 and β5i) or Ac-nLPnLD-AMC (for β1) or Ac-PAL-AMC (for β1i).” left out

GSH = experiment: HPLC-based GSH reactivity assay; format: physicochemical; conditions: 5 mM glutathione (GSH) in PBS buffer; 250 µM compound, 5 mM GSH, PBS pH 7.4; read-out: Reactivity with GSH (HPLC-based assay), t1/2
Method: GSH reactivity assay was performed as described by Petri et al.; 500 μM solution of compound (PBS buffer pH 7.4, 10% MeCN, 250 μL) with 200 μM solution of indoprofen as internal standard were added to 10 mM GSH solution (dissolved in PBS buffer, 250 μL) in a 1:1 ratio. […] The final mixture was analyzed by HPLC after 0, 1, 2, 4, 8, 12, 24, 48, and 72 h. The degradation kinetics were also studied using the method described in [24], except that pure PBS buffer was used instead of GSH solution. […] The area under the curve (AUC) values were determined by integrating the HPLC spectra and then corrected with the internal standard.

[1] = HPLC-based stability assay in PBS; format: physicochemical; conditions: PBS pH 7.4
Method: GSH reactivity assay was performed as described by Petri et al.; 500 μM solution of compound (PBS buffer pH 7.4, 10% MeCN, 250 μL) with 200 μM solution of indoprofen as internal standard were added to 10 mM GSH solution (dissolved in PBS buffer, 250 μL) in a 1:1 ratio. The final concentration was 250 μM compound, 100 μM indoprofen, 5 mM GSH and 5% MeCN (500 μL). The final mixture was analyzed by HPLC after 0, 1, 2, 4, 8, 12, 24, 48, and 72 h. The degradation kinetics were also studied using the method described in [24], except that pure PBS buffer was used instead of GSH solution. In this experiment, the final concentration of the mixture was 250 μM fragment, 100 μM indoprofen and 5% MeCN. The area under the curve (AUC) values were determined by integrating the HPLC spectra and then corrected with the internal standard.

[2] = UV-Vis-based stability assay in buffer; format: physicochemical; conditions: after 1 h, assay buffer pH 7.4, 37 °C, 50 µM
Method: The aqueous stability of all compounds was determined spectrophotometrically by following the changes in the absorption spectra of the compounds. The buffer solution (50 mM Tris-HCl, 0.5 mM EDTA, pH 7.4) was pre-incubated at 37 °C. Aliquots of the compounds studied (1 mM in DMSO) were transferred to a 96-well flat-bottom UV-transparent microplate (Corning, CLS3635, Corning Inc, Corning, NY, USA) containing the buffer solution to obtain a 50 μM solution containing 5% DMSO (final volume, 300 μL). The plate was incubated without lid at 37 °C in a plate reader (Synergy H4, BioTek Instruments, Inc., Santa Clara, CA, USA) and the absorbance spectrum (244–400 nm) was acquired in sweep mode after 0, 15, 30, 60, 120, 180, and 240 min using a discontinuous kinetic procedure in Gen5 software (BioTek Instruments, Inc., Santa Clara, CA, USA). The time required to read the entire plate was 3 min. To determine the baseline, the compound solution was replaced with pure DMSO and subtracted from each reading. Compounds with an absorbance maximum of less than 0.20 AU were not evaluated using these assays due to the high experimental error. For other compounds, the relative absorbance difference between the first time point and 60 min at the most responsive wavelength was calculated. If the relative absorbance difference for the compound in the buffer was below 0.1, between 0.1–0.2, and above 0.2, the compound was classified as stable, intermediate, and unstable, respectively.

β5 subunit of human cCP = molecular target: T6, β5 subunit of human cCP (Homo sapiens, UniProt P20618+P28074); experiment: Inhibition of β5 activity (RA, IC50), Suc-LLVY-AMC; format: biochemical; conditions: 30 min pre-incubation, SDS
T6 construct: purchased Boston Biochem, Inc., Cambridge, MA, USA
Method: as §1, §2

CC(C)C[C@H](NC(=O)[C@H](Cc1ccccc1)NC(=O)c1cnccn1)B(O)O [Bortezomib, reference compound]
β1 (RA [%]) (β1 subunit of human cCP): 0%
β2i (RA [%]) (β2i subunit of human iCP; Table 3): 16 ± 5%
remaining activity at 10 µM (β1i subunit of human iCP; 10 µM, Table 3, read-out: β1i residual activity at 10 µM): 0%
β2 (RA [%]) (β2 subunit of human cCP; Table 3): 62 ± 9%

COc1ccc2oc(C#N)nc2c1 [Compound 7]
RA (%) at 10 µM, β5i (β5i subunit of human iCP): 84 ± 11%
RA (%) at 10 µM, β5i (β5i subunit of human iCP; listed as 5-OMe): 84%
Group efficiency (GE) (β5i subunit of human iCP): 0.01
half-life at 250 µM (GSH): < 3 min
Stability in Buffer (HPLC-based assay) [1]: stable ^c,d
Stability in Buffer (UV-Vis-based assay) [2]: stable ^c,d (relative absorbance difference for the compound in the buffer was below 0.1)

COc1ccc2nc(C#N)oc2c1 [Compound 8]
β1 (RA [%]) (β1 subunit of human cCP): NA (NA, Not active (RA above 90%))
β2i (RA [%]) (β2i subunit of human iCP; Table 3): NA (NA, Not active (RA above 90%))
IC50 (β5i subunit of human iCP): 11 ± 6 µM
Group efficiency (GE) (β5i subunit of human iCP): 0.44
IC50 (β1i subunit of human iCP): 69 µM
β5 (RA [%]) at 10 µM (β5 subunit of human cCP): 74% ^b
Stability in Buffer (HPLC-based assay) [1]: stable
β2 (RA [%]) (β2 subunit of human cCP; Table 3): NA (NA, Not active (RA above 90%))
Stability in Buffer (UV-Vis-based assay) [2]: intermediate (between 0.1–0.2)

N#Cc1nc2ccc(O)cc2o1 [Compound 12]
Stability in Buffer (UV-Vis-based assay) [2]: intermediate ^c (between 0.1–0.2)

N#Cc1nc2c([N+](=O)[O-])cccc2o1 [Compound 16]
Stability in Buffer (HPLC-based assay) [1]: unstable
Stability in Buffer (UV-Vis-based assay) [2]: intermediate (between 0.1–0.2)

N#Cc1nc2ccc([N+](=O)[O-])cc2o1 [Compound 18]
Stability in Buffer (UV-Vis-based assay) [2]: unstable ^c (above 0.2)

N#Cc1nc2cccc([N+](=O)[O-])c2o1 [Compound 19]
RA (%) at 10 µM, β5i (β5i subunit of human iCP): 82 ± 2%
Stability in Buffer (UV-Vis-based assay) [2]: stable ^c (relative absorbance difference for the compound in the buffer was below 0.1)

N#Cc1nc2c(N)cccc2o1 [Compound 20]
Stability in Buffer (UV-Vis-based assay) [2]: stable ^c (relative absorbance difference for the compound in the buffer was below 0.1)

N#Cc1nc2cc(N)ccc2o1 [Compound 21]
Stability in Buffer (UV-Vis-based assay) [2]: stable ^c (relative absorbance difference for the compound in the buffer was below 0.1)

N#Cc1nc2cccc(N)c2o1 [Compound 23]
Stability in Buffer (UV-Vis-based assay) [2]: stable ^c (relative absorbance difference for the compound in the buffer was below 0.1)

N#Cc1nc2c(NC(=O)c3ccccc3)cccc2o1 [Compound 24]
Stability in Buffer (UV-Vis-based assay) [2]: stable ^c (relative absorbance difference for the compound in the buffer was below 0.1)

N#Cc1nc2cc(NC(=O)c3ccccc3)ccc2o1 [Compound 25]
Stability in Buffer (HPLC-based assay) [1]: stable ^c,d
Stability in Buffer (UV-Vis-based assay) [2]: stable ^c,d (relative absorbance difference for the compound in the buffer was below 0.1)

N#Cc1nc2ccc(NC(=O)c3ccccc3)cc2o1 [Compound 26]
Stability in Buffer (HPLC-based assay) [1]: stable
Stability in Buffer (UV-Vis-based assay) [2]: unstable (above 0.2)

N#Cc1nc2cccc(NC(=O)c3ccccc3)c2o1 [Compound 27]
Stability in Buffer (UV-Vis-based assay) [2]: stable ^c (relative absorbance difference for the compound in the buffer was below 0.1)

CC(C)C[C@H](NC(=O)Cn1c(C#N)nc2ccccc21)B1O[C@@H]2C[C@@H]3C[C@@H](C3(C)C)[C@]2(C)O1 [Compound 29]
Stability in Buffer (HPLC-based assay) [1]: unstable ^b,c
Stability in Buffer (UV-Vis-based assay) [2]: unstable ^b,c (above 0.2)

CC(C)C[C@H](NC(=O)CCCCn1c(C#N)nc2ccccc21)B1O[C@@H]2C[C@@H]3C[C@@H](C3(C)C)[C@]2(C)O1 [Compound 32]
IC50 (β5i subunit of human iCP): 13 ± 2 µM
IC50 (β5 subunit of human cCP): 1.6 ± 0.8 µM
Stability in Buffer (HPLC-based assay) [1]: stable
Stability in Buffer (UV-Vis-based assay) [2]: intermediate (between 0.1–0.2)

CC(C)C[C@H](NC(=O)Cn1c(C#N)nc2ccccc21)B(O)O [Compound 33]
Stability in Buffer (HPLC-based assay) [1]: unstable ^b,c
Stability in Buffer (UV-Vis-based assay) [2]: unstable ^b,c (above 0.2)

CC(C)C[C@H](NC(=O)CCCCn1c(C#N)nc2ccccc21)B(O)O [Compound 36]
IC50 (β1 subunit of human cCP; 30 min pre-incubation): 23 ± 6 µM
β2i (RA [%]) (β2i subunit of human iCP; Table 6): NA (NA, Not active (RA above 95%))
IC50 (β5i subunit of human iCP): 59 ± 7 µM
IC50 (β1i subunit of human iCP): 4.9 ± 0.4 µM
IC50 (β5 subunit of human cCP): 6.4 ± 2.6 µM
β2 (RA [%]) (β2 subunit of human cCP; Table 6): NA (NA, Not active (RA above 95%))
Stability in Buffer (UV-Vis-based assay) [2]: stable ^b (relative absorbance difference for the compound in the buffer was below 0.1)

CC(C)C[C@H](NC(=O)CCn1c(C#N)nc2ccc(Cl)cc21)B1O[C@@H]2C[C@@H]3C[C@@H](C3(C)C)[C@]2(C)O1 [Compound 37]
IC50 (β5i subunit of human iCP): 1.6 ± 1.3 µM
β5 (RA [%]) at 10 µM (β5 subunit of human cCP): 14 ± 1% ^e
Stability in Buffer (HPLC-based assay) [1]: stable
Stability in Buffer (UV-Vis-based assay) [2]: intermediate (between 0.1–0.2)
